# Measured values from patent publication US9480680B2, “Stable pharmaceutical composition of clopidogrel free base for oral and parenteral delivery” (priority 2013, dated 2016).
# Where two headings read alike, the source gives them in different places.
# Key:
# [1] = for Concentration, Aqueous Phase / Concentration, Oil Phase: 600 mg drug in 20 g soy bean oil + 20 g DI water, stirred at room temperature 24 hours, HPLC; for pH of aqueous phase: aqueous phase at end of partition study; for O/W partition ratio: soy bean oil / DI water, room temperature 24 hours
# Protocol: In order to determine percentage of clopidogrel partitioning in oil and aqueous phases, a partition study was conducted using clopidogrel biosulfate and clopidogrel free base. 600 mg of drug was weighed out and added to a beak containing equal weight of soy bean oil and DI water (20 g each). Stir the mixture in room temperature for 24 hours. At the end of study, samples from both phases were withdrawn and tested by HPLC as described in Example 14. The pH of the aqueous phase were measured.
# [2] = cited from earlier work
# [3] = 5 min
# Text: As used herein the disease or condition refers to any disease or condition which may be treated using clopidogrel containing medicine for the prevention of atherothrombotic events such as myocardial infarction, stroke, peripheral arterial disease, acute coronary syndrome, and cardio-vascular death.
# platelet aggregation = conditions: cited from earlier work
# [4] = cited from earlier work; remark: listed apart in the source
compound,measurement,setting,value
COC(=O)[C@H](c1ccccc1Cl)N1CCc2sccc2C1 [Clopidogrel bisulfate],"Concentration, Aqueous Phase",[1],15 mg/mL
same,"Concentration, Oil Phase",[1],17 mg/mL
same,pH of aqueous phase,[1],2
same,clopidogrel staying in the aqueous phase,[1]; soy bean oil / DI water partition study,about 50%
same,O/W partition ratio,[1],1.1
same,stability under increased moisture and temperature,[2]; listed as clopidogrel biosulfate,relatively unstable
"COC(=O)[C@H](c1ccccc1Cl)N1CCc2sccc2C1 [Clopidogrel free base, methyl (+)-(S)-α-(o-chlorophenyl)-6,7-dihydrothieno[3,2-c]pyridine-5(4H)-acetate]","Concentration, Aqueous Phase",[1],0.006 mg/mL
same,"Concentration, Oil Phase",[1],29 mg/mL
same,pH of aqueous phase,[1],7
same,amount of clopidogrel in the aqueous phase,"[1]; soy bean oil / DI water partition study, result in words",negligible
same,O/W partition ratio,[1],4833
same,degradation in diluted NaOH solution,[3],degraded completely in 5 minutes
same,solubility in ethyl ether,[2]; ethyl ether,practically insoluble
same,stability under increased moisture and temperature,[2],unstable
same,solubility in methanol,[2]; methanol,dissolves freely
same,solubility in methylene chloride,[2]; methylene chloride,dissolves sparingly
same,solubility at pH 1,[2]; pH 1,freely soluble
same,solubility in water at neutral pH,"[2]; water, neutral pH",practically insoluble
same,biological / pharmacological activity,platelet aggregation,biologically active
O=C(O)[C@H](c1ccccc1Cl)N1CCc2sccc2C1 [Impurity A],biological / pharmacological activity,platelet aggregation,no pharmacological activity
"COC(=O)[C@@H](c1ccccc1Cl)N1CCc2sccc2C1 [Impurity C, methyl ( )-(R)-(o-chlorophenyl)-6,7-dihydrothieno[3,2-c]pyridine-5(4H)-acetate]",anti-aggregation activity,platelet aggregation,does not exhibit any anti-aggregation activity
same,convulsions,[4]; high doses of animals,can evoke convulsions
same,tolerability,[4]; in vivo,poorly tolerated
